Test results from patent publication US20240109853A1 (Shanghai Yao Yuan Biotechnology Co., Ltd., priority 2020, published 2024).
Read-outs that look alike come from different tables or passages of the source.

How the values were obtained:
[1] = tested on: ALPK1-dependent NFκB reporter gene activation in HEK293 cells stably expressing an NF-kB reporter (G9 cells); assay: NFκB gene reporter alkaline phosphatase assay; type: cell-based; settings: read-out: NFkB assay IC50
From the text: In embodiments, a compound of Formula I, or a subembodiment described herein, is an inhibitor of ALPK1 as measured, for example, in an in vitro kinase assay, or an assay designed to measure the activation of downstream targets of ALPK1 pathway activation, for example NFkB transcriptional activation and the secretion of proinflammatory cytokines and chemokines, such as IL-8, which is also referred to as CXCL-8. In general, the computer program XL fit was used for data analysis, including non-linear regression analysis. The half maximal inhibitory concentration (IC50) was used as the measure of a compound's effectiveness in the assays. IC50 values were determined using the following logistic equation Y=min+(max−min)/(1+(X/IC50^−hillslpoe), where Y is the value at the compound concentration, X. The concentration response curve fitting was conducted using GraphPad Prism version 6.00 software.
An alkaline phosphatase reporter assay system was used to measure inhibition of ALPK1-dependent NFκB reporter gene activation. Briefly, HEK293 cells stably expressing an NF-kB reporter (referred to herein as “G9 cells”) were maintained in DMEM as described above. For the assay, cells were seeded into 96-well plates at a density of 10,000 cells/well in Freestyle™ 293 Expression Medium (ThermoFisher), and allowed to attach overnight. Cells were pretreated with serially diluted compounds for 30 min and then stimulated with D-glycero-D-manno-6-fluoro-heptose-1β-S-ADP. […] NFkB gene activation was detected using the chromogenic substrate, para-nitrophenyl phosphate (pNPP) according to the manufacturer's protocols (pNPP Phosphatase Assay, Beyotime Biotechnology).

[2] = target: ALPK1 (Homo sapiens (Human), UniProt Q96QP1); assay: ALPK1 in vitro kinase assay (HTRF of TIFA phosphorylation); type: biochemical
Chain of ALPK1 (Q96QP1 whole entry): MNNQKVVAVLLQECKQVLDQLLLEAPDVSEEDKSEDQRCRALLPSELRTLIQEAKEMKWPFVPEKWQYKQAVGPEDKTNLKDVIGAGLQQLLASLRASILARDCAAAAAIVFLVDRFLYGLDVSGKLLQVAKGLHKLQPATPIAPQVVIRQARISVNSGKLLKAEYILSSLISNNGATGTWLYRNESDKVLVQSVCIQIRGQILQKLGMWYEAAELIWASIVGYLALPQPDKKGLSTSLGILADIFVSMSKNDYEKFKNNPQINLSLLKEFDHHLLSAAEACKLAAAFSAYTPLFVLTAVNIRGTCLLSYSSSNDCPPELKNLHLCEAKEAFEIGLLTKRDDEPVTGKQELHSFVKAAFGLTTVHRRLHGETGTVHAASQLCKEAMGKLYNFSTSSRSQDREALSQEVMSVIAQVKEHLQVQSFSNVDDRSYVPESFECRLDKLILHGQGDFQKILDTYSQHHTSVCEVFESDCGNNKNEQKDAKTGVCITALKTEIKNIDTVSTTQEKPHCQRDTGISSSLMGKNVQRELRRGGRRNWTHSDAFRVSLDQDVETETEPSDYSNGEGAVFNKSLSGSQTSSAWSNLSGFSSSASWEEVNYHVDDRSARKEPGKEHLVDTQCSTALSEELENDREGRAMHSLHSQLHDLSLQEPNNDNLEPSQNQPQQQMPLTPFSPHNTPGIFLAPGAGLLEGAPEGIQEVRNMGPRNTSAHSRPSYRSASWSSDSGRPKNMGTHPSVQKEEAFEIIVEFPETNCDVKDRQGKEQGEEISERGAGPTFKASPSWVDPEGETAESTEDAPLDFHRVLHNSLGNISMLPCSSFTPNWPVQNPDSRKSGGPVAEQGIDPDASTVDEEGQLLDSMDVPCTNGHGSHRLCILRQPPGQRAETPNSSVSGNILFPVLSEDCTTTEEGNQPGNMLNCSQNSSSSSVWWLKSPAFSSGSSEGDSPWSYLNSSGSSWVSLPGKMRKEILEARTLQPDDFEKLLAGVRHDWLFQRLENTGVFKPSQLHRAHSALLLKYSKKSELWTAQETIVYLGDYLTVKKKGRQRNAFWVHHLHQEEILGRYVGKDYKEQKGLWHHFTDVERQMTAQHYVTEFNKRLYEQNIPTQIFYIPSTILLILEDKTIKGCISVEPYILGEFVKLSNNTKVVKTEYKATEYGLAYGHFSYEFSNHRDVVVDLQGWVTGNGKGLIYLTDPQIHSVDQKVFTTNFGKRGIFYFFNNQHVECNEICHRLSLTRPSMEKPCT

SMILES	IC50 ([1]; Homo sapiens, HEK293) [nM]	IC50 [2] [nM]	IC50 [1] [nM]	IC50 ([2]; ALPK1 2 nM, TIFA substrate, ADP-Heptose activator, HTRF readout) [nM]
CC(C)(c1ccc(Br)cc1)c1csc(NC(=O)NCc2cccc(N3CCNCC3)n2)n1 [Example A182, 1-(4-(2-(4-bromophenyl)propan-2-yl)thiazol-2-yl)-3-((6-(piperazin-1-yl)pyridin-2-yl)methyl)urea]	4300	163		
CC(C)NC(=O)Nc1nc(C(C)(C)c2ccc(Br)cc2)cs1 [Example A125, 1-(4-(2-(4-bromophenyl)propan-2-yl)thiazol-2-yl)-3-isopropylurea]	2800	28		
CC(C)(c1ccc(Br)cc1)c1csc(NC(=O)NCc2ccc(N3CCNCC3)nc2)n1 [Example A092, 1-(4-(2-(4-bromophenyl)propan-2-yl)thiazol-2-yl)-3-((6-(piperazin-1-yl)pyridin-3-yl)methyl)urea]	570	20		
COc1ccc(C(C)(C)c2csc(NC(=O)NCc3ccc(NCCO)nc3)n2)cc1 [Example A022, 1-((6-((2-hydroxyethyl)amino)pyri-din-3-yl)methyl)-3-(4-(2-(4-methoxyphenyl)propan-2-yl)thiazol-2-yl)urea]		232	960	
COc1ccc(C(C)(C)c2csc(NC(=O)NCc3ccc(N4CCC(N)C4)nc3)n2)cc1 (stereo not drawn) [Example A186, 1-((6-(3-aminopyrrolidin-1-yl)pyridin-3-yl)methyl)-3-(4-(2-(4-methoxyphenyl)propan-2-yl)thiazol-2-yl)urea]		19	1550	
CC(C)(c1ccc(Br)cc1)c1csc(NC(=O)NCc2ccc(N3CCNCC3)c(C(F)(F)F)c2)n1 [Example A049, 1-(4-(2-(4-bromophenyl)propan-2-yl)thiazol-2-yl)-3-(4-(piperazin-1-yl)-3-(trifluoromethyl)benzyl) urea]	800	119		
C#CC(C)(c1ccc(Cl)cc1)c1csc(NC(=O)N2CCC(CO)C2)n1 (stereo not drawn) [Example A270, N-(4-(2-(4-chlorophenyl)but-3-yn-2-yl)thiazol-2-yl)-3-(hydroxymethyl)pyrroli-dine-1-carboxamide]	1970	904		
O=C(NCCO)Nc1nc(C2(c3ccc(Br)cc3)CCC2)cs1 [Example A158, 1-(4-(1-(4-bromophenyl)cyclobutyl)thiazol-2-yl)-3-(2-hydroxyethyl)urea]	2860	67		
CC(C)(c1ccc(Cl)cc1)c1csc(NC(=O)NCc2cnc(N3CCNCC3)nc2)n1 [Example A084, 1-(4-(2-(4-chlorophenyl)propan-2-yl)thiazol-2-yl)-3-((2-(piperazin-1-yl)pyrimidin-5-yl)methyl)urea]	340	22		
COc1ccc(C(C)(C)c2csc(NC(=O)NCc3cnc(N4CCC(N)C4)nc3)n2)cc1 (stereo not drawn) [Example A187, 1-((2-(3-aminopyrrolidin-1-yl)pyrimidin-5-yl)methyl)-3-(4-(2-(4-methoxyphenyl)propan-2-yl)thiazol-2-yl)urea]	700	7		
C#C[C@@](C)(c1ccc(Cl)cc1)c1csc(NC(=O)N2CC(CO)C2)n1 [Example A258, (S)-N-(4-(2-(4-chlorophenyl)but-3-yn-2-yl)thiazol-2-yl)-3-(hydroxymethyl)azetidine-1-carboxamide]	1330	357		
COc1ccc(C(C)(C)c2csc(NC(=O)NCCCN3CCC(N)C3)n2)cc1 (stereo not drawn) [Example A226, 1-(3-(3-aminopyrrolidin-1-yl)propyl)-3-(4-(2-(4-methoxyphenyl)propan-2-yl)thiazol-2-yl)urea]	4820	100		
CC(C)(c1ccc(Cl)c(F)c1)c1csc(NC(=O)NCc2cnc(N3CCNCC3)nc2)n1 [Example A179, 1-(4-(2-(4-chloro-3-fluorophenyl)propan-2-yl)thiazol-2-yl)-3-((2-(piperazin-1-yl)pyrimidin-5-yl)methyl)urea]	1360	95		
COc1ccc(C(C)(C)c2csc(NC(=O)NCc3ccc(CN4CCNCC4)c(F)c3)n2)cc1 [Example A037, 1-(3-fluoro-4-(piperazin-1-ylmethyl)benzyl)-3-(4-(2-(4-methoxyphenyl)propan-2-yl)thiazol-2-yl)urea]	2510	57		
COCCOc1cc(CNC(=O)Nc2nc(C(C)(C)c3ccc(Br)cc3)cs2)ccc1N1CCNCC1 [Example A055, 1-(4-(2-(4-bromophenyl)propan-2-yl)thiazol-2-yl)-3-(3-(2-methoxyethoxy)-4-(piperazin-1-yl)benzyl)urea]	4700	182		
Cc1cc(CNC(=O)Nc2nc(C(C)(C)c3ccc(Br)cc3)cs2)ccc1N1CCNCC1 [Example A096, 1-(4-(2-(4-bromophenyl)propan-2-yl)thiazol-2-yl)-3-(3-methyl-4-(piperazin-1-yl)benzyl)urea]	1430	69		
COc1ccc(C(C)(C)c2csc(NC(=O)NCC3CC(N)C3)n2)cc1 (stereo not drawn) [Example A190, 1-((3-aminocyclobutyl)methyl)-3-(4-(2-(4-methoxyphenyl)propan-2-yl)thiazol-2-yl)urea]	3020	458		
CC(C)(c1ccc(Br)cc1)c1csc(NC(=O)NCc2ccc(F)c(Cl)c2)n1 [Example A017, 1-(4-(2-(4-bromophenyl)propan-2-yl)thiazol-2-yl)-3-(3-chloro-4-fluorobenzyl)urea]	970	204		
CC(C)(c1ccc(Br)cc1)c1csc(NC(=O)NCc2cnc(N3CCN(CCO)CC3)nc2)n1 [Example A103, 1-(4-(2-(4-bromophenyl)propan-2-yl)thiazol-2-yl)-3-((2-(4-(2-hydroxyethyl)piperazin-1-yl)pyrimidin-5-yl)methyl)urea]	6200	97		
C#C[C@](C)(c1ccc(Cl)cc1)c1csc(NC(=O)NCC2(O)CNC2)n1 (stereo in doubt) [Example A286, 1-(4-(2-(4-chlorophenyl)but-3-yn-2-yl)thiazol-2-yl)-3-((3-hydroxyazetidin-3-yl)methyl)urea]	15400	495		
Cc1cc(N2CCNCC2)ccc1CNC(=O)Nc1nc(C(C)(C)c2ccc(Br)cc2)cs1 [Example A051, 1-(4-(2-(4-bromophenyl)propan-2-yl)thiazol-2-yl)-3-(2-methyl-4-(piperazin-1-yl)benzyl)urea]	290	125		
CC1CN(c2ccc(CNC(=O)Nc3nc(C(C)(C)c4ccc(Br)cc4)cs3)cc2)CCN1 (stereo not drawn) [Example A194, 1-(4-(2-(4-bromophenyl)propan-2-yl)thiazol-2-yl)-3-(4-(3-methylpiperazin-1-yl)benzyl)urea]	3710	172		
C#C[C@@](C)(c1ccc(Br)cc1)c1csc(NC(=O)NCCO)n1 [Example A160, (S)-1-(4-(2-(4-bromophenyl)but-3-yn-2-yl)thiazol-2-yl)-3-(2-hydroxyethyl)urea]	170	10		
[2H]c1sc(NC(=O)NCCO)nc1[C@@](C)(C#C)c1ccc(Cl)cc1 [Example A299, 1-(4-(2-(4-chlorophenyl)but-3-yn-2-yl)thiazol-2-yl)-3-(2-hydroxyethyl)urea]	460	58		
COc1ccc(C(C)(C)c2csc(NC(=O)NCc3cnc(N4CCNCC4)nc3C)n2)cc1 [Example A223, 1-(4-(2-(4-methoxyphenyl)propan-2-yl)thiazol-2-yl)-3-((4-methyl-2-(piperazin-1-yl)pyrimidin-5-yl)methyl)urea]	760	49		
CC(C)(c1ccc(Br)cc1)c1csc(NC(=O)NCc2ccc(N3CCNCC3)cc2)n1 [Example A027, 1-(4-(2-(4-bromophenyl)propan--2 yl)thiazol-2-yl)-3-(4-(piperazin-1-yl)benzyl)urea]	1450	46		~50
CC(C)(c1ccc(Br)cc1)c1csc(NC(=O)NCc2cnc(N3CCC(O)CC3)nc2)n1 [Example A082, 1-(4-(2-(4-bromophenyl)propan-2-yl)thiazol-2-yl)-3-((2-(4-hydroxypiperidin-1-yl)pyrimidin-5-yl)methyl)urea]	6150	125		
CC1CN(c2ccc(CNC(=O)Nc3nc(C(C)(C)c4ccc(Br)cc4)cs3)cc2)CC(C)N1 (stereo not drawn) [Example A213, 1-(4-(2-(4-bromophenyl)propan-2-yl)thiazol-2-yl)-3-(4-(3,5-dimethylpiperazin-1-yl)benzyl)urea]	6380	9		
CC(C)(c1ccc(Br)cc1)c1csc(NC(=O)NCc2cnc(N3CCC(N)CC3)nc2)n1 [Example A099, 1-((2-(4-aminopiperidin-1-yl)pyrimidin-5-yl)methyl)-3-(4-(2-(4-bromophenyl)propan-2-yl)thiazol-2-yl)urea]	450	13		
COc1ccc(C(C)(C)c2csc(NC(=O)NCCCCNc3ccccc3)n2)cc1 [Example A147, 1-(4-(2-(4-methoxyphenyl)propan-2-yl)thiazol-2-yl)-3-(4-(phenylamino)butyl)urea]	1910			
